SMILES strings stand for the structures.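 Results reflect a 48-hour exposure of cells in 96-well plates to compound at five concentrations. TGI: concentration producing complete growth inhibition.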

One assay deals with SNB-19 CNS. The assay can be described thus: growth of human tumour cells (NCI), 48 h.
The compound `COC(=O)c1cc(S(=O)(=O)NC2=NCC(C)NN2)c(S)cc1Cl` (centres undefined) showed a TGI of over 100 µM.

The next assay concerns PC-3 prostate. Kind of assay: growth of human tumour cells (NCI), 48 h.
`COC1(OC)c2occc2C(=N)c2ccc(=O)oc21` registered a TGI of over 100 µM.
For `O=c1[nH]c2[nH]c(=S)[nH]c(=S)c2[nH]1`, the TGI is over 100 µM.
The same measure, in the same setting: the same measure for `CN=c1sc2c(n1C)C(=O)c1ccccc1C2=O`: over 55.1 µM; for `COC(=O)c1cc(S(=O)(=O)NC2=NCC(C)NN2)c(S)cc1Cl` (centres undefined): over 100 µM.

The next assay deals with M14 melanoma. The assay can be described thus: growth of human tumour cells (NCI), 48 h.
In the case of `COC1(OC)c2occc2C(=N)c2ccc(=O)oc21`, the TGI is over 100 µM.
Still for that read-out and setting: the same measure for `O=c1[nH]c2[nH]c(=S)[nH]c(=S)c2[nH]1`: over 100 µM.
`CN=c1sc2c(n1C)C(=O)c1ccccc1C2=O` gave a TGI of 3.01 µM.
In the case of `COC(=O)c1cc(S(=O)(=O)NC2=NCC(C)NN2)c(S)cc1Cl` (centres undefined), the TGI is over 100 µM.

A further assay relates to MDA-MB-231 breast. Kind of assay: growth of human tumour cells (NCI), 48 h.
On to `COC1(OC)c2occc2C(=N)c2ccc(=O)oc21`, for which the TGI is over 100 µM.
With `O=c1[nH]c2[nH]c(=S)[nH]c(=S)c2[nH]1`, the TGI is over 100 µM.
`CN=c1sc2c(n1C)C(=O)c1ccccc1C2=O` returned a TGI of 33.7 µM.
Still for that read-out and setting: the same measure for `COC(=O)c1cc(S(=O)(=O)NC2=NCC(C)NN2)c(S)cc1Cl` (centres undefined): over 100 µM.

A further assay has as its system HL-60(TB) leukemia. Kind of assay: growth of human tumour cells (NCI), 48 h.
In the case of `COC1(OC)c2occc2C(=N)c2ccc(=O)oc21`, the TGI was over 100 µM.
On the same count and under the same terms, the same measure for `O=c1[nH]c2[nH]c(=S)[nH]c(=S)c2[nH]1`: over 100 µM; for `COC(=O)c1cc(S(=O)(=O)NC2=NCC(C)NN2)c(S)cc1Cl` (centres undefined): over 100 µM.

The next assay deals with UACC-257 melanoma. Kind of assay: growth of human tumour cells (NCI), 48 h.
As for `COC1(OC)c2occc2C(=N)c2ccc(=O)oc21`, the TGI is over 100 µM.
Regarding `O=c1[nH]c2[nH]c(=S)[nH]c(=S)c2[nH]1`, the TGI is over 100 µM.
Still for that read-out and setting: the value for `CN=c1sc2c(n1C)C(=O)c1ccccc1C2=O` was 4.59 µM.
In turn, `COC(=O)c1cc(S(=O)(=O)NC2=NCC(C)NN2)c(S)cc1Cl` (centres undefined) returned a TGI of over 100 µM.

Another assay deals with SK-MEL-5 melanoma. The assay can be described thus: growth of human tumour cells (NCI), 48 h.
Regarding `COC1(OC)c2occc2C(=N)c2ccc(=O)oc21`, the TGI was found to be 49.2 µM.
On the same count and under the same terms, the value for `O=c1[nH]c2[nH]c(=S)[nH]c(=S)c2[nH]1` was over 100 µM; that for `CN=c1sc2c(n1C)C(=O)c1ccccc1C2=O` was 6.85 µM.
With `COC(=O)c1cc(S(=O)(=O)NC2=NCC(C)NN2)c(S)cc1Cl` (centres undefined), the TGI came to 82.3 µM.

The next assay deals with A549 NSCLC. The assay can be described thus: growth of human tumour cells (NCI), 48 h.
`COC1(OC)c2occc2C(=N)c2ccc(=O)oc21` yielded a TGI of over 100 µM.
Still for that read-out and setting: the same measure for `O=c1[nH]c2[nH]c(=S)[nH]c(=S)c2[nH]1`: over 100 µM; for `CN=c1sc2c(n1C)C(=O)c1ccccc1C2=O`: 3.94 µM.
On the same count and under the same terms, the same measure for `COC(=O)c1cc(S(=O)(=O)NC2=NCC(C)NN2)c(S)cc1Cl` (centres undefined): over 100 µM.

For a further assay, the system named is U251 CNS. Kind of assay: growth of human tumour cells (NCI), 48 h.
With `COC1(OC)c2occc2C(=N)c2ccc(=O)oc21`, the TGI was over 100 µM.
Consider `O=c1[nH]c2[nH]c(=S)[nH]c(=S)c2[nH]1`, for which the TGI was over 100 µM.
On the same count and under the same terms, the same measure for `CN=c1sc2c(n1C)C(=O)c1ccccc1C2=O`: 10.5 µM; for `COC(=O)c1cc(S(=O)(=O)NC2=NCC(C)NN2)c(S)cc1Cl` (centres undefined): over 100 µM.

In another assay the test system is NCI-H460 lung. The assay can be described thus: growth of human tumour cells (NCI), 48 h.
On to `COC1(OC)c2occc2C(=N)c2ccc(=O)oc21`, for which the TGI is over 100 µM.
On the same count and under the same terms, the same measure for `O=c1[nH]c2[nH]c(=S)[nH]c(=S)c2[nH]1`: over 100 µM.
With `CN=c1sc2c(n1C)C(=O)c1ccccc1C2=O`, the TGI is 8.01 µM.
Still for that read-out and setting: the value for `COC(=O)c1cc(S(=O)(=O)NC2=NCC(C)NN2)c(S)cc1Cl` (centres undefined) was over 100 µM.

For the next assay, the system named is EKVX NSCLC. The assay can be described thus: growth of human tumour cells (NCI), 48 h.
`COC1(OC)c2occc2C(=N)c2ccc(=O)oc21` had a TGI of over 100 µM.
`O=c1[nH]c2[nH]c(=S)[nH]c(=S)c2[nH]1` came in with a TGI of over 100 µM.
The same measure, in the same setting: the same measure for `CN=c1sc2c(n1C)C(=O)c1ccccc1C2=O`: 24.3 µM.
On the same count and under the same terms, the value for `COC(=O)c1cc(S(=O)(=O)NC2=NCC(C)NN2)c(S)cc1Cl` (centres undefined) was over 100 µM.

The next assay has as its system DU-145 prostate. Kind of assay: growth of human tumour cells (NCI), 48 h.
Turning to `COC1(OC)c2occc2C(=N)c2ccc(=O)oc21`, the TGI is over 100 µM.
`CN=c1sc2c(n1C)C(=O)c1ccccc1C2=O` had a TGI of 3.12 µM.
`COC(=O)c1cc(S(=O)(=O)NC2=NCC(C)NN2)c(S)cc1Cl` (centres undefined) returned a TGI of over 100 µM.

For the next assay, the system named is SN12C renal. Kind of assay: growth of human tumour cells (NCI), 48 h.
The compound `COC1(OC)c2occc2C(=N)c2ccc(=O)oc21` displayed a TGI of over 100 µM.
In the case of `O=c1[nH]c2[nH]c(=S)[nH]c(=S)c2[nH]1`, the TGI is over 100 µM.
Still for that read-out and setting: the same measure for `CN=c1sc2c(n1C)C(=O)c1ccccc1C2=O`: 3.05 µM.
With `COC(=O)c1cc(S(=O)(=O)NC2=NCC(C)NN2)c(S)cc1Cl` (centres undefined), the TGI was over 100 µM.

Another assay deals with HCT-116 colon. Kind of assay: growth of human tumour cells (NCI), 48 h.
`COC1(OC)c2occc2C(=N)c2ccc(=O)oc21` displayed a TGI of over 100 µM.
`O=c1[nH]c2[nH]c(=S)[nH]c(=S)c2[nH]1` registered a TGI of over 100 µM.
On the same count and under the same terms, the value for `CN=c1sc2c(n1C)C(=O)c1ccccc1C2=O` was 9.1 µM.
The compound `COC(=O)c1cc(S(=O)(=O)NC2=NCC(C)NN2)c(S)cc1Cl` (centres undefined) came in with a TGI of over 100 µM.

For another assay, the system named is SK-OV-3 ovarian. The assay can be described thus: growth of human tumour cells (NCI), 48 h.
The compound `COC1(OC)c2occc2C(=N)c2ccc(=O)oc21` had a TGI of over 100 µM.
`CN=c1sc2c(n1C)C(=O)c1ccccc1C2=O` displayed a TGI of 77.9 µM.
As to `COC(=O)c1cc(S(=O)(=O)NC2=NCC(C)NN2)c(S)cc1Cl` (centres undefined), the TGI was over 100 µM.
